Measurements: ChEMBL document CHEMBL3885861, “Open TG-GATES”

Species: Rattus norvegicus
Assay: Open TG-GATES - Regimen: Single
Assay type: toxicity, organism-based, Sprague-Dawley
Parameters: regimen Single, gender Male, age 6 weeks
Settings: in vivo, po, 250 mg/kg, route gavage, dose level Middle; for APTT / Bas / Eos / Fbg / Hb / Ht / Lym / MCH / MCHC / MCV / Mono / Neu / PT / Plat / RBC / Ret / WBC: tissue Blood; for KIDNEY_L / KIDNEY_R / KIDNEY_TOTAL: tissue Kidney; for LIVER: tissue Liver; for A/G / ALP / ALT / AST / BUN / CRE / Ca / Cl / DBIL / GLC / IP / K / LDH / Na / PL / RALB / TBIL / TC / TG / TP / gamma-GTP: tissue Plasma

CN(C/C=C/C#CC(C)(C)C)Cc1cccc2ccccc12 [TERBINAFINE]
TERMINAL_BW (3 h): 225.8 g
APTT (3 h): 20 s
Bas (3 h): 0.6%
Eos (3 h): 0.8%
Fbg (3 h): 215.8 mg/dL
Hb (3 h): 13.2 g/dL
Ht (3 h): 39.2%
Lym (3 h): 79.4%
MCH (3 h): 21.8 pg
MCHC (3 h): 33.7%
MCV (3 h): 64.7 fL
Mono (3 h): 2.2%
Neu (3 h): 16.6%
PT (3 h): 12.2 s
Plat (3 h): 125.2 x10_4/uL
RBC (3 h): 606.8 x10_4/ul
Ret (3 h): 7.2%
WBC (3 h): 90.5 x10_2/uL
KIDNEY_L (3 h): 1 g
KIDNEY_R (3 h): 1 g
KIDNEY_TOTAL (3 h): 2 g
LIVER (3 h): 10.4 g
A/G (3 h): 1.7
ALP (3 h): 909.4 IU/L
ALT (3 h): 42.4 IU/L
AST (3 h): 72.8 IU/L
BUN (3 h): 12 mg/dL
CRE (3 h): 0.4 mg/dL
Ca (3 h): 10.6 mg/dL
Cl (3 h): 103.6 meq/L
DBIL (3 h): 0.084 mg/dL
GLC (3 h): 213 mg/dL
IP (3 h): 9.1 mg/dL
K (3 h): 3.9 meq/L
LDH (3 h): 166.8 IU/L
Na (3 h): 141.4 meq/L
PL (3 h): 123.8 mg/dL
RALB (3 h): 3.4 g/dL
TBIL (3 h): 0.1 mg/dL
TC (3 h): 65 mg/dL
TG (3 h): 43.8 mg/dL
TP (3 h): 5.4 g/dL
gamma-GTP (3 h): 1 IU/L
TERMINAL_BW (6 h): 221.8 g
APTT (6 h): 18.1 s
Bas (6 h): 0.4%
Eos (6 h): 0.8%
Fbg (6 h): 220.6 mg/dL
Hb (6 h): 13.3 g/dL
Ht (6 h): 39.5%
Lym (6 h): 74%
MCH (6 h): 21.5 pg
MCHC (6 h): 33.7%
MCV (6 h): 64 fL
Mono (6 h): 2.4%
Neu (6 h): 22.2%
PT (6 h): 12.3 s
Plat (6 h): 110.3 x10_4/uL
RBC (6 h): 617.4 x10_4/ul
Ret (6 h): 6.8%
WBC (6 h): 90.7 x10_2/uL
KIDNEY_L (6 h): 1 g
KIDNEY_R (6 h): 1 g
KIDNEY_TOTAL (6 h): 2 g
LIVER (6 h): 9.6 g
A/G (6 h): 1.8
ALP (6 h): 842.8 IU/L
ALT (6 h): 36 IU/L
AST (6 h): 70.6 IU/L
BUN (6 h): 11.4 mg/dL
CRE (6 h): 0.4 mg/dL
Ca (6 h): 10.6 mg/dL
Cl (6 h): 102.8 meq/L
DBIL (6 h): 0.086 mg/dL
GLC (6 h): 204 mg/dL
IP (6 h): 9.7 mg/dL
K (6 h): 4 meq/L
LDH (6 h): 156 IU/L
Na (6 h): 141.4 meq/L
PL (6 h): 132.2 mg/dL
RALB (6 h): 3.5 g/dL
TBIL (6 h): 0.2 mg/dL
TC (6 h): 71.8 mg/dL
TG (6 h): 35.2 mg/dL
TP (6 h): 5.4 g/dL
gamma-GTP (6 h): 1 IU/L
TERMINAL_BW (9 h): 220.9 g
APTT (9 h): 18.2 s
Bas (9 h): 0.6%
Eos (9 h): 1%
Fbg (9 h): 211.6 mg/dL
Hb (9 h): 12.8 g/dL
Ht (9 h): 38.5%
Lym (9 h): 77.8%
MCH (9 h): 20.8 pg
MCHC (9 h): 33.3%
MCV (9 h): 62.3 fL
Mono (9 h): 2.4%
Neu (9 h): 18.2%
PT (9 h): 12.5 s
Plat (9 h): 114.8 x10_4/uL
RBC (9 h): 618 x10_4/ul
Ret (9 h): 6.3%
WBC (9 h): 74.3 x10_2/uL
KIDNEY_L (9 h): 1 g
KIDNEY_R (9 h): 1 g
KIDNEY_TOTAL (9 h): 2 g
LIVER (9 h): 9.1 g
A/G (9 h): 1.6
ALP (9 h): 845 IU/L
ALT (9 h): 31.4 IU/L
AST (9 h): 67.6 IU/L
BUN (9 h): 12 mg/dL
CRE (9 h): 0.4 mg/dL
Ca (9 h): 10.3 mg/dL
Cl (9 h): 103.4 meq/L
DBIL (9 h): 0.074 mg/dL
GLC (9 h): 198.2 mg/dL
IP (9 h): 10.8 mg/dL
K (9 h): 4.1 meq/L
LDH (9 h): 153 IU/L
Na (9 h): 141.8 meq/L
PL (9 h): 122 mg/dL
RALB (9 h): 3.4 g/dL
TBIL (9 h): 0.1 mg/dL
TC (9 h): 64 mg/dL
TG (9 h): 26.6 mg/dL
TP (9 h): 5.5 g/dL
gamma-GTP (9 h): 1.4 IU/L
TERMINAL_BW (24 h): 237.1 g
APTT (24 h): 18.5 s
Bas (24 h): 0.6%
Eos (24 h): 1%
Fbg (24 h): 223.8 mg/dL
Hb (24 h): 13.4 g/dL
Ht (24 h): 39.8%
Lym (24 h): 79.2%
MCH (24 h): 21.4 pg
MCHC (24 h): 33.8%
MCV (24 h): 63.3 fL
Mono (24 h): 3.2%
Neu (24 h): 15.6%
PT (24 h): 12 s
Plat (24 h): 127.3 x10_4/uL
RBC (24 h): 628.2 x10_4/ul
Ret (24 h): 6.6%
WBC (24 h): 91.5 x10_2/uL
KIDNEY_L (24 h): 1.1 g
KIDNEY_R (24 h): 1.1 g
KIDNEY_TOTAL (24 h): 2.2 g
LIVER (24 h): 11.9 g
A/G (24 h): 1.6
ALP (24 h): 1068.6 IU/L
ALT (24 h): 46.4 IU/L
AST (24 h): 84.6 IU/L
BUN (24 h): 15.4 mg/dL
CRE (24 h): 0.4 mg/dL
Ca (24 h): 10.7 mg/dL
Cl (24 h): 103.2 meq/L
DBIL (24 h): 0.098 mg/dL
GLC (24 h): 191.2 mg/dL
IP (24 h): 8.6 mg/dL
K (24 h): 3.9 meq/L
LDH (24 h): 193.8 IU/L
Na (24 h): 141.4 meq/L
PL (24 h): 135 mg/dL
RALB (24 h): 3.4 g/dL
TBIL (24 h): 0.2 mg/dL
TC (24 h): 72.4 mg/dL
TG (24 h): 84 mg/dL
TP (24 h): 5.5 g/dL
gamma-GTP (24 h): 1.6 IU/L
